Key:
Assay type in all cases: cell-based
RM1.PGLS cells [1] = test: Phagocytosis of PSMA expressing RM1.PGLS cells by IFN-γ primed U937 cells
Procedure: Target cell passing: Three days before the experiments, a plate of target cells, RM1.PGLS cells were passed into a new flask.
Effector cell priming: Three days before the experiments, a plate of U937 cells (approximately 60% confluent) was passed into a new Petri dish (10 mL colored ADCP media total volume). IFN-γ (20 μL, 100 μg/mL in DPBS) was added, and the cells were maintained in an incubator (37° C., 24 h). The cells were transferred into a Falcon tube, and DiD (19 uL, final concentration=1.9 μM) was added. The cells were maintained in an incubator (37° C., 30 min), pelleted, aspirated, resuspended in colored ADCP media (10 mL), and split equally into two Petri dishes. To each dish were added additional colored ADCP media (5 mL) and IFN-γ (20 μL, 100 μg/mL in DPBS), and the cells were maintained in an incubator (37° C., 24 h).
Target cell preparation: To a plate of target cells (60-80% confluent RM1.PGLS cells 10 mL total media volume) was added DiO (20 μL, final concentration=2 μM). The cells were maintained in an incubator (37° C., 30 min), aspirated, and washed with colored ADCP media (3×10 mL). Colored ADCP media (10 mL) was added. The cells were maintained in an incubator (37° C., 2 h), detached and resuspended in color-free ADCP media at a concentration of 0.5 million cells per mL.
Effector cell preparation: Both dishes of primed U937 cells were transferred into a Falcon tube, pelleted, aspirated, resuspended in color-free ADCP media (10 mL), counted, and diluted with color-free ADCP media to give a final concentration of 2 million cells per mL.
Phagocytosis: All conditions were run in triplicate. For each experiment, into a sterile 2 mL Eppendorf tube were added color-free ADCP media (25 μL) containing either various concentrations of SyAM-Px or ARM-P8/Anti-DNP antibody, target cells (25 μL=12,500 cells), and effector cells (50 μL=100,000 cells), to give an effector-to-target ratio of 8:1. Tubes were gently agitated by hand. The cells were pelleted (2 min, 1100 rpm). The tubes were opened, maintained in an incubator (37° C., 1 h), resuspended by briefly agitating with a vortex, and analyzed by flow cytometry.

PSMA coated beads = test: Molecule induced phagocytosis of PSMA coated beads by IFN-γ primed U937 cells; conditions: for Observed % Phagocytosis (50 nM SyAM-P2): beads
Procedure: Three days before the experiments, a plate of U937 cells (approximately 60% confluent) was passed into a new Petri dish (10 mL colored RPMI growth media total volume). IFN-γ (20 μL, 100 μg/mL in DPBS) was added, and the cells were maintained in an incubator (37° C., 24 h). The cells were pelleted after 24 hours and resuspended in 10 mL of IFN-γ (20 uL, 100 ug/mL in DPBS) and maintained in an incubator (37° C., 24 h)
For phagocytosis: cells were transferred into a Falcon tube, and DiD (19 uL, final concentration=1.9 μM) was added. The cells were maintained in an incubator (37° C., 30 min), pelleted, aspirated, resuspended in RPMI growth media (10 mL), and split equally into two Petri dishes. To each dish were added additional colored RPMI growth media (5 mL) and IFN-γ (20 μL, 100 μg/mL in DPBS), and maintained in an incubator (37° C., 24 h).
[…] streptavidin fluoresbrite YG microspheres from Polysciences were incubated with 4× concentration of avi-tagged PSMA for 30 minutes at room temperature in DPBS (concentration of avi-tagged PSMA is dependent on biotin loading capacity of microspheres). Beads were washed with DPBS 2× and resuspended in color-free ADCP media at 1.6 million beads/mL.
Phagocytosis: 25 uL of bead solution was added to 25 uL of ADCP media either with or without molecules at various concentrations in an eppendorf tube. To this 50 uL of 4 million/mL primed U937 cells were added, gently mixed and then centrifuged at […] for 2 minutes. The caps were opened and placed in an incubator (37° C., 1 hr) at which point the eppendorfs were closed and placed on ice. Samples were vortexed and run on an Accuri C6 flow cytometer for a total of 50 k counts.
Data analysis: For each experiment 50,000 events were counted. Forward and side scatter plots were optimally gated to remove debris particles and cellular aggregates. On a plot of FL-2 vs FL-4 the following populations were counted: […]

RM1.PGLS cells [2] = test: Superoxide burst (lucigenin) by primed U937 cells against RM1.PGLS cells; conditions: IFN-γ primed U937 effectors
Text: Since SyAM-P1 was able to induce effector-cell mediated responses against target protein coated beads, the inventors then evaluated if the molecule can elicit the effects against PSMA expressing cells. To that end, the inventors evaluated the SyAM-P1 induced immune responses by primed U937 effector cells against PSMA expressing RM1.PGLS cells. They tested the U937-mediated immune effects by evaluating both superoxide burst and phagocytosis of effector cells, analogous to the protein coated bead experiments. In this experiment, IFN-γ primed U937 cells were incubated with PSMA expressing RM1.PGLS cells, and treated with various concentrations of SyAM-P1. The resulting superoxide burst response was measured using the lucigenin assay (data not shown). Additionally, primed U937 cells (stained with DiD, an FL4 membrane dye) were incubated with target RM1.PGLS cells (stained with […], an FL1 membrane dye), in the presence of various concentrations of SyAM-P 1. The resulting phagocytosis—indicated by FL1 and FL4 double positive cells—was measured using two-color flow-cytometry. As a positive control, ARM-P8 combined with anti-DNP antibodies was utilized. […] The positive response seen with the Arm-P8 control, could potentially be attributed to the ability of antibodies to ligate both FcγRI and FcγRIIA on the immune effector cells, increasing immune signaling and phagocytic responses.

Compound	inhibition of SyAM-P3 induced phagocytosis of RM1.PGLS cells (RM1.PGLS cells [1]; 6.25 nM SyAM-P3, increasing inhibitor concentrations)	inhibition of SyAM-P3 induced phagocytosis of PSMA coated beads (PSMA coated beads; 50 nM SyAM-P3, increasing inhibitor concentrations)	effect of inhibitor on SyAM-P1 induced immune effector responses (superoxide burst, phagocytosis of beads) (PSMA coated beads; data not shown)	superoxide burst against RM1.PGLS cells (in words) (RM1.PGLS cells [2])	phagocytosis of RM1.PGLS cells (in words) (RM1.PGLS cells [1]; IFN-γ primed U937 effectors)	Observed % Phagocytosis (50 nM SyAM-P2) (RM1.PGLS cells [1]; target RM1.PGLS cells, measured 918 PSMA/um^2, 50 nM) [%]	Observed % Phagocytosis (50 nM SyAM-P2) (PSMA coated beads; labeling 2.9 pmol/bead, calculated 1972 PSMA/um^2) [%]	Observed % Phagocytosis (50 nM SyAM-P2) (PSMA coated beads; labeling 5.7 pmol/bead, calculated 3876 PSMA/um^2) [%]	Observed % Phagocytosis (50 nM SyAM-P2) (PSMA coated beads; labeling 8.2 pmol/bead, measured 5577 PSMA/um^2) [%]	phagocytosis of PSMA coated beads (comparison in words) (PSMA coated beads; compared with the previous generation SyAM-P)
O=C(O)CCC(CP(=O)(O)O)C(=O)O (stereo not shown) [2-PMPA, reference compound]	inhibition of phagocytosis	inhibition of phagocytosis	abrogated	–	–	–	–	–	–	–
CC(=O)N[C@H](C(=O)N[C@@H](CC(N)=O)C(=O)N[C@@H](CO)C(=O)N[C@H]1CSSC[C@@H](C(=O)NCC(=O)N[C@@H](CC(=O)O)C(=O)N[C@@H](CC(=O)O)C(=O)N[C@@H](C)C(=O)N[C@@H](CCCCNC(=O)CCCCc2cn(-c3cc(C(=O)NCCCCCC(=O)NCCCCCC(=O)NCCCCCC(=O)NCCCCCC(=O)NCCCCCC(=O)NCCCCCC(=O)NCc4cn(CCCC[C@H](NC(=O)N[C@@H](CCC(=O)O)C(=O)O)C(=O)O)nn4)cc(C(=O)NCCCCCC(=O)NCCCCCC(=O)NCCCCCC(=O)NCCCCCC(=O)NCCCCCC(=O)NCCCCCC(=O)NCc4cn(CCCC[C@H](NC(=O)N[C@@H](CCC(=O)O)C(=O)O)C(=O)O)nn4)c3)nn2)C(=O)N[C@@H](CCCCNC(=O)CCCC[C@@H]2SC[C@@H]3NC(=O)N[C@@H]32)C(N)=O)NC(=O)CNC(=O)[C@H](CC(C)C)NC(=O)[C@H](CC(C)C)NC(=O)[C@H](CC(N)=O)NC(=O)[C@@H]2CCCN2C(=O)[C@H](CC(C)C)NC(=O)[C@H](CC(C)C)NC(=O)[C@H](CC(C)C)NC1=O)C(C)C [SyAM-P2]	–	–	–	no response	no response	0	10.1	24.0	46.2	much higher level of phagocytosis
